For test [1], the system named is SARS-CoV. Put plainly: Selective index against SARS coronavirus. The class given is functional, Severe acute respiratory syndrome-related coronavirus.
Test [2] relates to Cowpox virus. Kind of test: Antiviral activity against Cowpox virus. The class given is functional, organism-based.
The test system of test [3] is West Nile virus. Put plainly: Cytotoxicity against West Nile virus. The class given is organism-based.
The test system of test [4] is Yellow fever virus. Kind of test: Antiviral activity against Yellow fever virus. The class given is functional, organism-based.
For test [5], the system named is Venezuelan equine encephalitis virus. Put plainly: Antiviral activity against Venezuelan equine encephalitis virus. The class given is functional, organism-based.
Test [6] has the same test system. Kind of test: Cytotoxicity against Venezuelan equine encephalitis virus. The class given is organism-based.
For test [7], the system named is Yellow fever virus. Kind of test: Cytotoxicity against Yellow fever virus. The class given is organism-based.
In test [8] the test system is SARS-CoV. Kind of test: Cytotoxicity against SARS coronavirus. The class given is organism-based. The conditions noted are these: Severe acute respiratory syndrome-related coronavirus.
Test [9] relates to Cowpox virus. Put plainly: Selective index against Cowpox virus. The class given is functional.
Test [10] has as its system Venezuelan equine encephalitis virus. Put plainly: Selective index against Venezuelan equine encephalitis virus. The class given is functional.
In test [11] the test system is Vaccinia virus. Put plainly: Antiviral activity against Vaccinia virus. The class given is functional, organism-based. The conditions noted are these: Orthopoxvirus vaccinia.
In test [12] the test system is Yellow fever virus. Put plainly: Selective index against Yellow fever virus. The class given is functional.
Test [13] is described as follows: Cytotoxicity against Vaccinia virus. The class given is organism-based. The following applies: Orthopoxvirus vaccinia.
A short description of test [14]: Cytotoxicity against Cowpox virus. The class given is organism-based.
Test [15] relates to SARS-CoV. Kind of test: Antiviral activity against SARS coronavirus. The conditions noted are these: Severe acute respiratory syndrome-related coronavirus. The class given is functional, organism-based.
Test [16] deals with Vaccinia virus. Kind of test: Selective index against Vaccinia virus. The class given is functional, Orthopoxvirus vaccinia.
Test [17] concerns West Nile virus. Kind of test: Antiviral activity against West Nile virus. The class given is functional, organism-based.

Usually EC50 stands for the concentration that produces a half-maximal response. Higher therefore signals a need for much substance. For orientation: IC50 means the midpoint of a concentration-inhibition curve. Lower therefore signals greater potency in that assay.

Take `NC(=O)c1cn([C@@H]2C=C(CO)[C@@H](O)[C@H]2O)nn1`: the Selectivity index in the test on SARS-CoV [1] is recorded as over 2.1; with Cowpox virus [9], over 7.7; in test [10] it was 0; with Yellow fever virus [12], 0; in the test with Vaccinia virus [16], over 750. The EC50 in the test with Cowpox virus [2] was 39 µM; with Yellow fever virus [4] it was over 100 µM; in test [5] it was over 100 µM; in the test with Vaccinia virus [11], 0.4 µM; with SARS-CoV [15], 47 µM; in the test with West Nile virus [17] it was over 100 µM. Also, the IC50 in the test with West Nile virus [3] was over 100 µM; in test [6], over 100 µM; in the test with Yellow fever virus [7], over 100 µM; in the test with SARS-CoV [8], over 100 µM; in test [13] it was over 300 µM; in test [14], over 300 µM.

For the compound `NC(=O)c1ncn([C@@H]2C=C(CO)[C@@H](O)[C@H]2O)n1`, the Selectivity index in the test on SARS-CoV [1] is over 4.8; with Cowpox virus [9] it was 0; in test [10] it was 0; with Yellow fever virus [12], 0; in the test on Vaccinia virus [16], 0. Also, the EC50 in the test on Cowpox virus [2] was over 300 µM; in the test on Yellow fever virus [4], over 100 µM; in test [5] it was over 100 µM; in the test with Vaccinia virus [11] it was over 300 µM; in the test with SARS-CoV [15], 21 µM; with West Nile virus [17], over 100 µM. Moreover, the IC50 was over 100 µM with West Nile virus [3]; over 100 µM in [6]; over 100 µM with Yellow fever virus [7]; over 100 µM in the test on SARS-CoV [8]; over 300 µM in test [13]; over 300 µM in test [14].

On to `NC(=O)c1cn([C@@H]2C=C(CO)[C@@H](O)[C@H]2O)cn1`, for which the Selectivity index (in the test with SARS-CoV [1]; in the test on Cowpox virus [9]; in test [10]; in the test with Yellow fever virus [12]; in the test with Vaccinia virus [16]) was 0 in each case. In addition, the EC50 was over 300 µM in the test with Cowpox virus [2]; over 100 µM in the test with Yellow fever virus [4]; over 100 µM in test [5]; over 300 µM in the test with Vaccinia virus [11]; over 100 µM in the test on SARS-CoV [15]; over 100 µM with West Nile virus [17]. The IC50 with West Nile virus [3] is over 100 µM; in test [6], over 100 µM; with Yellow fever virus [7], over 100 µM; with SARS-CoV [8], over 100 µM; in test [13] it was over 300 µM; in test [14] it was over 300 µM.

Consider `Nc1ccn(C[C@@H](CO)OCP(=O)(O)O)c(=O)n1` [CIDOFOVIR], for which the EC50 in the test on Vaccinia virus [11] was 6 µM. Moreover, the IC50 is under 317 µM in test [13] and over 317 µM in test [14].
